Assay results as given in ChEMBL document CHEMBL1909046, “DrugMatrix in vitro pharmacology data”.
pIC50, pKi: −log10 of the molar value.

Tests used:
Glycine receptor = Glycine receptor (Rattus norvegicus, UniProt P07727+P20781+P22771+P24524); format: cell membranes, Wistar, Spinal cord, Membrane
Androgen receptor = target: T1, Androgen receptor (Rattus norvegicus, UniProt P15207)
T1 sequence (P15207 whole entry): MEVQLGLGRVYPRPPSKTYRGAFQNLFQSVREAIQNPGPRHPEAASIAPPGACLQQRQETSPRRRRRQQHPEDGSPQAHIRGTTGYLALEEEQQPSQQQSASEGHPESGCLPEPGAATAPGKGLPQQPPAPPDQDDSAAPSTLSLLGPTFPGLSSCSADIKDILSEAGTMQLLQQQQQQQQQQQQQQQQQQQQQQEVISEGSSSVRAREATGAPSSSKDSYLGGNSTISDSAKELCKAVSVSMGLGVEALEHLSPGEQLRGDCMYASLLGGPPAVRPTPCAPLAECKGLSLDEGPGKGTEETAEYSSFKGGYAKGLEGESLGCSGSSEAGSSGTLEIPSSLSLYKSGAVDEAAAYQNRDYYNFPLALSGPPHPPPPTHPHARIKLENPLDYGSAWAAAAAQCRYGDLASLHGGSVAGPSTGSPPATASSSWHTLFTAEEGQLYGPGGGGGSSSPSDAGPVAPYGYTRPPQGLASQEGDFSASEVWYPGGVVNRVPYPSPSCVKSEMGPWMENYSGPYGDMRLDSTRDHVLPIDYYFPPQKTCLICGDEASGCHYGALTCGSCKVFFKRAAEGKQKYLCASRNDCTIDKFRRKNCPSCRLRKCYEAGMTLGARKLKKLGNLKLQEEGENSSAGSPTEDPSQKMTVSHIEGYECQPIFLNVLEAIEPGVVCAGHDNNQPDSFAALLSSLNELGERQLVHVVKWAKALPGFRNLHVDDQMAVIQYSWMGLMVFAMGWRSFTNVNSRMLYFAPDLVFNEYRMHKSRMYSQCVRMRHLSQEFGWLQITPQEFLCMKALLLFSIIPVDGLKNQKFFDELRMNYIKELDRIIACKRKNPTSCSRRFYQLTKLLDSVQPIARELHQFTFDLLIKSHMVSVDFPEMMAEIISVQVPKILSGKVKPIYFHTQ

Cytochrome P450 1A2 = target: T2, Cytochrome P450 1A2 (Homo sapiens, UniProt P05177)
T2 sequence (P05177 whole entry): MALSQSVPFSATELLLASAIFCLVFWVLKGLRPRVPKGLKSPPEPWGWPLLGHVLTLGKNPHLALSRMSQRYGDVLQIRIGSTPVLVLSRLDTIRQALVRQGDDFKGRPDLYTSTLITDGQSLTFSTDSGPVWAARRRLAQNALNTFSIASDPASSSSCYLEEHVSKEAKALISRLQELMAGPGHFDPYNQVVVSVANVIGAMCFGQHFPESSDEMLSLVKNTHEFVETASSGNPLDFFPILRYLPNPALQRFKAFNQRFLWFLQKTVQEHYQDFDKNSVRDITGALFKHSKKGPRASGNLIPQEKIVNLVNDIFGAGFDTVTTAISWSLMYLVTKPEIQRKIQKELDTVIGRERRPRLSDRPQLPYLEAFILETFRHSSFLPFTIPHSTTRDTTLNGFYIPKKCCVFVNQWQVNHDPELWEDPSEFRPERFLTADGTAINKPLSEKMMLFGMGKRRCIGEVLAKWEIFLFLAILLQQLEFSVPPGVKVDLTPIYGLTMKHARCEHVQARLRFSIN

[1] = target: Voltage-gated inwardly rectifying potassium channel KCNH2 (Homo sapiens, UniProt Q12809)
Sequence of Voltage-gated inwardly rectifying potassium channel KCNH2 (Q12809 whole entry): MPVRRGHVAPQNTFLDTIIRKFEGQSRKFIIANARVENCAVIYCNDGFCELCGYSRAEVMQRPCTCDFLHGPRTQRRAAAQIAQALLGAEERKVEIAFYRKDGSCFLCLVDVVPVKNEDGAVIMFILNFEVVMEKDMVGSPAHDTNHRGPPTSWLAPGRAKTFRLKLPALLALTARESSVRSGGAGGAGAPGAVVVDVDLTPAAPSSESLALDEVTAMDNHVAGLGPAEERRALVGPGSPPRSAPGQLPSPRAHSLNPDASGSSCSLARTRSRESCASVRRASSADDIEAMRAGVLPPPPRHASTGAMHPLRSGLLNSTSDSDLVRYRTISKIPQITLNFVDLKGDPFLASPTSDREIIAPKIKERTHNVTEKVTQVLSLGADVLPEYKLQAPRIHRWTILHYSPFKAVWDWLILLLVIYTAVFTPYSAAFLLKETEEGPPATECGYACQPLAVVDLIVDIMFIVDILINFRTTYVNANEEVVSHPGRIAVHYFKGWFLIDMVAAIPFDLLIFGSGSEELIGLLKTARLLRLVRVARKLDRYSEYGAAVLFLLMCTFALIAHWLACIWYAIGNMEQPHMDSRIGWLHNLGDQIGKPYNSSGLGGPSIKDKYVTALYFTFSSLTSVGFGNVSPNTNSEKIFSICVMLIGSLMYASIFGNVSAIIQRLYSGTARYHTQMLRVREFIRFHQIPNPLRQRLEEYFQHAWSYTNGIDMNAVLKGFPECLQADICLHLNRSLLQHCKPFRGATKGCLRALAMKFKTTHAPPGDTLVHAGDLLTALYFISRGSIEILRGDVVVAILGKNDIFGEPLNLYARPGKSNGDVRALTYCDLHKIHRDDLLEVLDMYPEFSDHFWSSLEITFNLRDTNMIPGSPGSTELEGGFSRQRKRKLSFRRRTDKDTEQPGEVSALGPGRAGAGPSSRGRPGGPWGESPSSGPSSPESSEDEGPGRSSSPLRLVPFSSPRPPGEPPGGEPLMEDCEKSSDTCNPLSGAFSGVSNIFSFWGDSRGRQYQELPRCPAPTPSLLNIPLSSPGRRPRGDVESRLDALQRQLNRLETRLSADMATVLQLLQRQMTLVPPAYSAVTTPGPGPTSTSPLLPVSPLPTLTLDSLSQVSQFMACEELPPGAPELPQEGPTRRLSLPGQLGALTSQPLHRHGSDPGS

Sequence of Glycine receptor (P22771 whole entry): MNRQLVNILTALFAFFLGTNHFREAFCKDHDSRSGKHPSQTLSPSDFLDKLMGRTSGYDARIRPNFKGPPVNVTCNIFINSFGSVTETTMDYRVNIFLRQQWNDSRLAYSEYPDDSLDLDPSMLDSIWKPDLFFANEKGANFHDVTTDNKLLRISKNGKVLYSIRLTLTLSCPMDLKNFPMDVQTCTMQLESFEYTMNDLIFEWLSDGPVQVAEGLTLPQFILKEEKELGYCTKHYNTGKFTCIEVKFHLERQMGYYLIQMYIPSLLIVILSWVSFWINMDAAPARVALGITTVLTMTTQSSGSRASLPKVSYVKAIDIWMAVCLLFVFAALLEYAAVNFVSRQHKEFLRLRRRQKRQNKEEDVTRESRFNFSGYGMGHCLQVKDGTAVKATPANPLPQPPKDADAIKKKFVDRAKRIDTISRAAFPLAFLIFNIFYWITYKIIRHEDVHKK
Sequence of Glycine receptor (P24524 whole entry): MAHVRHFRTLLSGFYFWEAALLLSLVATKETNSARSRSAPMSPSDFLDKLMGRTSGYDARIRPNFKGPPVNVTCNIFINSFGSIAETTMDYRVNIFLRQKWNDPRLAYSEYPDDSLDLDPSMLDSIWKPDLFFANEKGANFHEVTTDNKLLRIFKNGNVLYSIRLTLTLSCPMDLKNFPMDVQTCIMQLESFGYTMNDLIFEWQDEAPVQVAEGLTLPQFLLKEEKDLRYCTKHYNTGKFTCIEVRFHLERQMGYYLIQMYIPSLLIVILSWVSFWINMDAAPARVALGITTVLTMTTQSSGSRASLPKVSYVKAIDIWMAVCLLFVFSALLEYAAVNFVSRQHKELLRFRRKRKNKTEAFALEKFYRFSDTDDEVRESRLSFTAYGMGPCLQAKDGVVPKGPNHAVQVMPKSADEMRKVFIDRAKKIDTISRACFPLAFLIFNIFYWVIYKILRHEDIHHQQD
Sequence of Glycine receptor (P07727 whole entry): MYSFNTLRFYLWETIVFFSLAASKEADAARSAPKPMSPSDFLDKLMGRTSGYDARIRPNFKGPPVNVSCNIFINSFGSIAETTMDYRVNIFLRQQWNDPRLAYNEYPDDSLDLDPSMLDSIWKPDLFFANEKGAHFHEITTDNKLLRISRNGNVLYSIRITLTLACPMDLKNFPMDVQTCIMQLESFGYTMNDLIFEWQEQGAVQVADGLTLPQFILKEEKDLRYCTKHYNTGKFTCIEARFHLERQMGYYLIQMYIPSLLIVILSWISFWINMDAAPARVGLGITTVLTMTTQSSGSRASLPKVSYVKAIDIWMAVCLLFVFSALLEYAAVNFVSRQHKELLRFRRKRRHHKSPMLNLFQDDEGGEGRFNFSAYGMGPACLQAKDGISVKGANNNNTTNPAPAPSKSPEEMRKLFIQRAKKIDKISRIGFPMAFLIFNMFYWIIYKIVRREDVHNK
Sequence of Glycine receptor (P20781 whole entry): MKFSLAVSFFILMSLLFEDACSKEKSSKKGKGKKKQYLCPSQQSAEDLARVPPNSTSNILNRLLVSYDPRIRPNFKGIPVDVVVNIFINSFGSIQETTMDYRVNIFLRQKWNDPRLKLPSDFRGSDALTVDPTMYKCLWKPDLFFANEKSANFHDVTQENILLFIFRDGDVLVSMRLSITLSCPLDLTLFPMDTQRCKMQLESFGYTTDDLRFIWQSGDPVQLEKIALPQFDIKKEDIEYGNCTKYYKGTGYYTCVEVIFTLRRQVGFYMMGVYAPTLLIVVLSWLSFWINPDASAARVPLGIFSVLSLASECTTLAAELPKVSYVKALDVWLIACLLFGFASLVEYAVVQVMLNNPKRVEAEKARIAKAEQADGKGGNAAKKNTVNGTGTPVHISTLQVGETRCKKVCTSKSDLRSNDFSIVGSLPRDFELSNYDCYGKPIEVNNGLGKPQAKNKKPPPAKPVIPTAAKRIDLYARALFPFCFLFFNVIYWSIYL

| Structure (SMILES) | pIC50 (Androgen receptor) | pKi (Androgen receptor) | pIC50 (Cytochrome P450 1A2) | pIC50 [1] | pKi [1] | other results |
| --- | --- | --- | --- | --- | --- | --- |
| CC[C@H](C)[C@H]1O[C@]2(C=C[C@@H]1C)C[C@@H]1C[C@@H](C/C=C(\C)[C@@H](O[C@H]3C[C@H](OC)[C@@H](O[C@H]4C[C@H](OC)[C@@H](O)[C@H](C)O4)[C@H](C)O3)[C@@H](C)/C=C/C=C3\CO[C@@H]4[C@H](O)C(C)=C[C@@H](C(=O)O1)[C@]34O)O2.CO[C@H]1C[C@H](O[C@H]2[C@H](C)O[C@@H](O[C@@H]3/C(C)=C/C[C@@H]4C[C@@H](C[C@]5(C=C[C@H](C)[C@@H](C(C)C)O5)O4)OC(=O)[C@@H]4C=C(C)[C@@H](O)[C@H]5OC/C(=C\C=C\[C@@H]3C)[C@]54O)C[C@@H]2OC)O[C@@H](C)[C@@H]1O [ABAMECTIN] |  |  |  |  |  | pIC50 (Glycine receptor): 6.88; pKi (Glycine receptor): 7.12 |
| CCC(=O)O[C@]1(C(=O)CCl)[C@@H](C)C[C@H]2[C@@H]3CCC4=CC(=O)C=C[C@]4(C)[C@@]3(F)[C@@H](O)C[C@@]21C [CLOBETASOL PROPIONATE] | 5.42 | 5.60 |  |  |  |  |
| Oc1c(Cl)cc(Cl)c(Cl)c1Cc1c(O)c(Cl)cc(Cl)c1Cl [HEXACHLOROPHENE] | 5.30 | 5.48 | 5.88 |  |  |  |
| O=c1cc(N2CCOCC2)oc2c(-c3ccccc3)cccc12 [LY-294002] |  |  | 6.00 |  |  |  |
| CCN(CC)CCOCCC1=CCC2CC1C2(C)C (configuration not stated) [MYRTECAINE] |  |  |  | 5.23 | 5.32 |  |
| COc1cc2nc(N3CCN(C(=O)c4ccco4)CC3)nc(N)c2cc1OC [PRAZOSIN] |  |  |  | 4.61 | 4.70 |  |
